According to US9802937B2, “Substituted pyrazolo{4,3-D}pyrimidines as kinase inhibitors” (ORIGENIS GMBH, priority 2011, dated 2017):
pKi: −log10 of the molar value.

target: T1, SYK kinase (Homo sapiens, UniProt P43405); experiment: SYK Assay (OMNIA KINASE ASSAY, SOX peptide fluorescence); format: biochemical; conditions: apparent Ki calculated from the IC50 using the Cheng-Prusoff equation; 1 mM ATP, 30° C.; read-out: SYK Activities: Ki
T1 construct: purchased Invitrogen, Carlsbad
In short: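 Continuous Omnia assay: SYK phosphorylation of SOX-labelled Tyr 7 peptide (10 µM) with 1 mM ATP and 0.2 mM DTT at 30 °C. Fluorescence (ex 360/em 485 nm) read every 30 s for 30 min. Reaction velocity versus inhibitor concentration gives IC50, converted to apparent Ki by Cheng-Prusoff.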

| pKi | Compound |
| --- | --- |
| 7.00 to 8.00 | CCN1CCN(c2ccc(Nc3nc(-c4cc(OC)ccc4OC)nc4cn[nH]c34)cc2)CC1 [Example #122, 5-(2,5-dimethoxyphenyl)-N-(4-(4-ethylpiperazin-1-yl)phenyl)-1H-pyrazolo[4,3-d]pyrimidin-7-amine] |
| 6.00 to 7.00 | CN1CCC(c2nc(Nc3ccc(N4CCCC4)cc3)c3[nH]ncc3n2)CC1 [Example #56, 5-(1-methylpiperidin-4-yl)-N-(4-(pyrrolidin-1-yl)phenyl)-1H-pyrazolo[4,3-d]pyrimidin-7-amine] |
| 6.00 to 7.00 | c1cc(Nc2nc(-c3cccs3)nc3cn[nH]c23)cc(-n2nccn2)c1 [Example #262, N-(3-(2H-1,2,3-triazol-2-yl)phenyl)-5-(thiophen-2-yl)-1H-pyrazolo[4,3-d]pyrimidin-7-amine] |
| 7.00 to 8.00 | COC(=O)c1cccc(-c2nc(Nc3ccc4c(c3)NC(=O)CC4)c3[nH]ncc3n2)c1 [Example #210, methyl 3-(7-((2-oxo-1,2,3,4-tetrahydroquinolin-7-yl)amino)-1H-pyrazolo[4,3-d]pyrimidin-5-yl)benzoate] |
| 7.00 to 8.00 | COC(=O)c1ccc(-c2nc(Nc3ccc(N4CCOCC4)cc3)c3[nH]ncc3n2)cc1 [Example #242, methyl 4-(7-((4-morpholinophenyl)amino)-1H-pyrazolo[4,3-d]pyrimidin-5-yl)benzoate] |
| > 8.00 | COC(=O)c1ccc(-c2nc(Nc3ccc(N4CCN(C)CC4)cc3)c3[nH]ncc3n2)cc1 [Example #213, methyl 4-(7-((4-(4-methylpiperazin-1-yl)phenyl)amino)-1H-pyrazolo[4,3-d]pyrimidin-5-yl)benzoate] |
| 6.00 to 7.00 | COc1ccc(Nc2nc(-c3cccc(S(F)(F)(F)(F)F)c3)nc3cn[nH]c23)cc1OC [Example #219, N-(3,4-dimethoxyphenyl)-5-(3-(pentafluorosulfanyl)phenyl)-1H-pyrazolo[4,3-d]pyrimidin-7-amine] |
| 7.00 to 8.00 | COC(=O)c1cccc(-c2nc(Nc3ccc4c(c3)NC(=O)CO4)c3[nH]ncc3n2)c1 [Example #211, methyl 3-(7-((3-oxo-3,4-dihydro-2H-benzo[b][1,4]oxazin-6-yl)amino)-1H-pyrazolo[4,3-d]pyrimidin-5-yl)benzoate] |
| 6.00 to 7.00 | COC(=O)c1cccc(-c2nc(Nc3ccc4c(c3)NC(=O)CCC4)c3[nH]ncc3n2)c1 [Example #217, methyl 3-(7-((2-oxo-2,3,4,5-tetrahydro-1H-benzo[b]azepin-8-yl)amino)-1H-pyrazolo[4,3-d]pyrimidin-5-yl)benzoate] |
| 6.00 to 7.00 | CN(C)CCNc1nc(C(=O)c2ccccc2)nc2cn[nH]c12 [Example #150, (7-((2-(dimethylamino)ethyl)amino)-1H-pyrazolo[4,3-d]pyrimidin-5-yl)(phenyl)methanone] |
| 7.00 to 8.00 | CN1CCN(c2ccc(Nc3nc(-c4cccc(S(F)(F)(F)(F)F)c4)nc4cn[nH]c34)cc2)CC1 [Example #221, N-(4-(4-methylpiperazin-1-yl)phenyl)-5-(3-(pentafluorosulfanyl)phenyl)-1H-pyrazolo[4,3-d]pyrimidin-7-amine] |
| > 8.00 | CN1CCN(c2ccc(Nc3nc(-c4cccc(-c5nn[nH]n5)c4)nc4cn[nH]c34)cc2)CC1 [Example #149, 5-(3-(2H-tetrazol-5-yl)phenyl)-N-(4-(4-methylpiperazin-1-yl)phenyl)-1H-pyrazolo[4,3-d]pyrimidin-7-amine] |
| 7.00 to 8.00 | CN(C)Cc1ccc(Nc2nc(-c3cccc(N)c3)nc3cn[nH]c23)cc1 [Example #309, 5-(3-aminophenyl)-N-(4-((dimethylamino)methyl)phenyl)-1H-pyrazolo[4,3-d]pyrimidin-7-amine] |
| 7.00 to 8.00 | CN1CCC(c2nc(Nc3cc(C4CC4)[nH]n3)c3[nH]ncc3n2)CC1 [Example #92, N-(5-cyclopropyl-1H-pyrazol-3-yl)-5-(1-methylpiperidin-4-yl)-1H-pyrazolo[4,3-d]pyrimidin-7-amine] |
| 7.00 to 8.00 | COc1ccc(Nc2nc(-c3cccc(N4CCOCC4)c3)nc3cn[nH]c23)cc1OC [Example #107, N-(3,4-dimethoxyphenyl)-5-(3-morpholinophenyl)-1H-pyrazolo[4,3-d]pyrimidin-7-amine] |
